In ChEMBL document CHEMBL6120982, “Cell-penetrating anti-sense peptide nucleic acids targeting sulfatase 2 inhibit adipogenesis in human mesenchymal stem cells” (Bioorg Med Chem, 2024):
pIC50: −log10 of the molar value. Calls of active or inactive are those of the source. The calls are words filed in the database; no cut-off is given here.

How the values were obtained:
Mesenchymal stem cells [1] = experiment: Cytotoxicity against human BMMSC cells assessed as effect on cell viability upto 1 uM incubated for 24 hrs by CCK8 assay; format: toxicity, cell-based
DNA [2] = experiment: Binding affinity to N-terminal of 10-mer c-DNA (unknown origin) assessed as melting temperature at 4 uM by UV-Vis spectrophotometric analysis; format: nucleic-acid assay
DNA [3] = experiment: Binding affinity to C-terminal of 10-mer c-DNA (unknown origin) assessed as melting temperature at 4 uM by UV-Vis spectrophotometric analysis; format: nucleic-acid assay
Mesenchymal stem cells [4] = experiment: Inhibition of SULF2 mRNA expression in human BMMSC cells at 0.1 uM by RT-qPCR analysis; format: functional, cell-based
Mesenchymal stem cells [5] = experiment: Effect on osteogenesis in ascorbic acid/dexamethasone/beta-glycerol phosphate differentiated human BMMSC cells; format: functional, cell-based
DNA [6] = experiment: Binding affinity to 10-mer DNA (unknown origin) assessed as melting temperature at 4 uM by UV-Vis spectrophotometric analysis; format: nucleic-acid assay
Mesenchymal stem cells [7] = experiment: Inhibition of SULF2 mRNA expression in human BMMSC cells by RT-qPCR analysis; format: functional, cell-based; conditions: dose 0.01-1 µM
Mesenchymal stem cells [8] = experiment: Anti-adipogenic activity in insulin/dexamthasone/pioglitazone/IBMX differentiated human BMMSC cells assessed as downregulation of adiponectin protein secretion at 1 uM by ELISA; format: functional, cell-based
Mesenchymal stem cells [9] = experiment: Anti-adipogenic activity in insulin/dexamthasone/pioglitazone/IBMX differentiated human BMMSC cells assessed as downregulation of adiponectin protein secretion by ELISA; format: functional, cell-based

SMILES: Cc1cn(CC(=O)N(CCNC(=O)CN(CCNC(=O)CN(CCNC(=O)CN(CCNC(=O)CN(CCNC(=O)CN(CCNC(=O)CN(CCNC(=O)CN(CCNC(=O)CN(CCNC(=O)CN(CCNC(=O)CN(CCNC(=O)CN(CCNC(=O)CN(CCNC(=O)CN(CCNC(=O)CN(CCNC(=O)CN(CCNC(=O)CN(CCNC(=O)CN(CCNC(=O)CN(CCNC(=O)OCCC2c3ccccc3-c3ccccc32)C(=O)Cn2ccc(N)nc2=O)C(=O)Cn2cc3cc(COCCN)[nH]c3nc2=O)C(=O)Cn2ccc(N)nc2=O)C(=O)Cn2cc(C)c(=O)[nH]c2=O)C(=O)Cn2cnc3c(=O)[nH]c(NCCCCCCN)nc32)C(=O)Cn2ccc(N)nc2=O)C(=O)Cn2cc(C)c(=O)[nH]c2=O)C(=O)Cn2ccc(N)nc2=O)C(=O)Cn2cnc3c(=O)[nH]c(NCCCCCN)nc32)C(=O)Cn2ccc(N)nc2=O)C(=O)Cn2ccc(N)nc2=O)C(=O)Cn2cc(C)c(=O)[nH]c2=O)C(=O)Cn2cnc3c(=O)[nH]c(NCCCCCCN)nc32)C(=O)Cn2cc(C)c(=O)[nH]c2=O)C(=O)Cn2ccc(N)nc2=O)C(=O)Cn2ccc(N)nc2=O)C(=O)Cn2cnc3c(=O)[nH]c(NCCCCCCN)nc32)C(=O)Cn2cnc3c(=O)[nH]c(N)nc32)CC(=O)NCCN(N)C(=O)Cn2cnc3c(N)ncnc32)c(=O)[nH]c1=O
- Activity (Mesenchymal stem cells [1]): Non-toxic
- Tm (DNA [2]): 77 °C
- Tm (DNA [3]): 63.5 °C
- inhibition (Mesenchymal stem cells [4]): inactive
- Activity (Mesenchymal stem cells [5]): inactive

SMILES: NCCN(CC(=O)NCCN(CC(=O)NCCN(CC(=O)NCCN(CC(=O)NCCN(CC(=O)NCCN(CC(=O)NCCN(CC(=O)NCCN(CC(=O)NCCN(CC(=O)NCCN(CC(N)=O)C(=O)Cn1ccc(N)nc1=O)C(=O)Cn1cnc2c(=O)[nH]c(N)nc21)C(=O)Cn1cnc2c(N)ncnc21)C(=O)Cn1cnc2c(=O)[nH]c(N)nc21)C(=O)Cn1cnc2c(N)ncnc21)C(=O)Cn1ccc(N)nc1=O)C(=O)Cn1cnc2c(N)ncnc21)C(=O)Cn1cnc2c(=O)[nH]c(N)nc21)C(=O)Cn1cnc2c(N)ncnc21)C(=O)Cn1ccc(N)nc1=O
- Tm (DNA [6]): 71 °C

SMILES: Cc1cn(CC(=O)N(CCN)CC(=O)NCCN(CC(=O)NCCN(CC(=O)NCCN(CC(=O)NCCN(CC(=O)NCCN(CC(=O)NCCN(CC(=O)NCCN(CC(=O)NCCN(CC(=O)NCCN(CC(N)=O)C(=O)Cn2cnc3c(N)ncnc32)C(=O)Cn2ccc(N)nc2=O)C(=O)Cn2cnc3c(=O)[nH]c(N)nc32)C(=O)Cn2cnc3c(N)ncnc32)C(=O)Cn2ccc(N)nc2=O)C(=O)Cn2cnc3c(N)ncnc32)C(=O)Cn2cnc3c(=O)[nH]c(N)nc32)C(=O)Cn2cnc3c(N)ncnc32)C(=O)Cn2ccc(N)nc2=O)c(=O)[nH]c1=O
- Tm (DNA [6]): 66.2 °C

SMILES: Cc1cn(CC(=O)N(CCN)CC(=O)NCCN(CC(=O)NCCN(CC(=O)NCCN(CC(=O)NCCN(CC(=O)NCCN(CC(=O)NCCN(CC(=O)NCCN(CC(=O)NCCN(CC(=O)NCCN(CC(N)=O)C(=O)Cn2cnc3c(N)ncnc32)C(=O)Cn2cc3cc(COCCN)[nH]c3nc2=O)C(=O)Cn2cnc3c(=O)[nH]c(N)nc32)C(=O)Cn2cnc3c(N)ncnc32)C(=O)Cn2cc3cc(COCCN)[nH]c3nc2=O)C(=O)Cn2cnc3c(N)ncnc32)C(=O)Cn2cnc3c(=O)[nH]c(N)nc32)C(=O)Cn2cnc3c(N)ncnc32)C(=O)Cn2ccc(N)nc2=O)c(=O)[nH]c1=O
- Tm (DNA [6]): 76.4 °C

SMILES: NCCCCCCNc1nc2c(ncn2CC(=O)N(CCNC(=O)CN(CCNC(=O)CN(CCNC(=O)CN(CCNC(=O)CN(CCNC(=O)CN(CCN)C(=O)Cn2cnc3c(=O)[nH]c(N)nc32)C(=O)Cn2ccc(N)nc2=O)C(=O)Cn2cnc3c(N)ncnc32)C(=O)Cn2cnc3c(=O)[nH]c(NCCCCCCN)nc32)C(=O)Cn2cnc3c(N)nc(NCCCCCN)nc32)CC(=O)NCCN(CC(=O)NCCN(CC(=O)NCCN(CC(=O)NCCN(CC(N)=O)C(=O)Cn2cnc3c(=O)[nH]c(N)nc32)C(=O)Cn2cnc3c(N)ncnc32)C(=O)Cn2cnc3c(=O)[nH]c(NCCCCCCN)nc32)C(=O)Cn2ccc(N)nc2=O)c(=O)[nH]1
- Tm (DNA [6]): 74.8 °C

SMILES: Cc1cn(CC(=O)N(CCNC(=O)CN(CCNC(=O)CN(CCNC(=O)CN(CCNC(=O)CN(CCNC(=O)CN(CCNC(=O)CN(CCNC(=O)CN(CCNC(=O)CN(CCNC(=O)CN(CCNC(=O)CN(CCNC(=O)CN(CCNC(=O)CN(CCNC(=O)CN(CCNC(=O)CN(CCNC(=O)CN(CCNC(=O)CN(CCNC(=O)CN(CCNC(=O)OCCC2c3ccccc3-c3ccccc32)C(=O)Cn2cc(C)c(=O)[nH]c2=O)C(=O)Cn2cnc3c(=O)[nH]c(N)nc32)C(=O)Cn2ccc(N)nc2=O)C(=O)Cn2cnc3c(N)nc(NCCCCCN)nc32)C(=O)Cn2cc(C)c(=O)[nH]c2=O)C(=O)Cn2cnc3c(=O)[nH]c(N)nc32)C(=O)Cn2cnc3c(=O)[nH]c(N)nc32)C(=O)Cn2cnc3c(N)nc(NCCCCCN)nc32)C(=O)Cn2cnc3c(N)ncnc32)C(=O)Cn2ccc(N)nc2=O)C(=O)Cn2cc3cc(COCCN)[nH]c3nc2=O)C(=O)Cn2cc(C)c(=O)[nH]c2=O)C(=O)Cn2cnc3c(=O)[nH]c(N)cc32)C(=O)Cn2ccc(N)nc2=O)C(=O)Cn2cnc3c(N)nc(NCCCCCN)nc32)C(=O)Cn2cnc3c(N)ncnc32)C(=O)Cn2cnc3c(=O)[nH]c(NCCCCCCN)nc32)CC(=O)NCCN(CC(=O)NCCN(CC(N)=O)C(=O)Cn2cnc3c(N)ncnc32)C(=O)Cn2ccc(N)nc2=O)c(=O)[nH]c1=O
- Activity (Mesenchymal stem cells [1]): Non-toxic
- Tm (DNA [2]): 66.4 °C
- Tm (DNA [3]): 51.1 °C
- inhibition (Mesenchymal stem cells [4]): inactive
- Activity (Mesenchymal stem cells [5]): inactive

SMILES: NCCN(CC(=O)NCCN(CC(=O)NCCN(CC(=O)NCCN(CC(=O)NCCN(CC(=O)NCCN(CC(=O)NCCN(CC(=O)NCCN(CC(=O)NCCN(CC(=O)NCCN(CC(N)=O)C(=O)Cn1cnc2c(N)ncnc21)C(=O)Cn1ccc(N)nc1=O)C(=O)Cn1cnc2c(N)ncnc21)C(=O)Cn1cnc2c(=O)[nH]c(N)nc21)C(=O)Cn1cnc2c(N)ncnc21)C(=O)Cn1ccc(N)nc1=O)C(=O)Cn1cnc2c(N)ncnc21)C(=O)Cn1ccc(N)nc1=O)C(=O)Cn1cnc2c(=O)[nH]c(N)nc21)C(=O)Cn1cnc2c(N)ncnc21
- Tm (DNA [6]): 65.2 °C

SMILES: Cc1cn(CC(=O)N(CCNC(=O)CN(CCNC(=O)CN(CCNC(=O)CN(CCNC(=O)CN(CCNC(=O)CN(CCNC(=O)CN(CCNC(=O)CN(CCNC(=O)CN(CCNC(=O)CN(CCNC(=O)CN(CCNC(=O)CN(CCNC(=O)CN(CCNC(=O)CN(CCNC(=O)CN(CCNC(=O)CN(CCNC(=O)CN(CCNC(=O)CN(CCNC(=O)CN(CCNC(=O)CN(CCNC(=O)OCCC2c3ccccc3-c3ccccc32)C(=O)Cn2cnc3c(=O)[nH]c(N)nc32)C(=O)Cn2cnc3c(=O)[nH]c(NCCCCCCN)nc32)C(=O)Cn2cnc3c(=O)[nH]c(N)nc32)C(=O)Cn2cnc3c(=O)[nH]c(N)nc32)C(=O)Cn2cc3cc(COCCN)[nH]c3nc2=O)C(=O)Cn2ccc(N)nc2=O)C(=O)Cn2ccc(N)nc2=O)C(=O)Cn2cnc3c(N)nc(NCCCCCN)nc32)C(=O)Cn2cc(C)c(=O)[nH]c2=O)C(=O)Cn2ccc(N)nc2=O)C(=O)Cn2cc(C)c(=O)[nH]c2=O)C(=O)Cn2cc(C)c(=O)[nH]c2=O)C(=O)Cn2cc3cc(COCCN)[nH]c3nc2=O)C(=O)Cn2cc(C)c(=O)[nH]c2=O)C(=O)Cn2cc(C)c(=O)[nH]c2=O)C(=O)Cn2cc(C)c(=O)[nH]c2=O)C(=O)Cn2cc(C)c(=O)[nH]c2=O)C(=O)Cn2cc(C)c(=O)[nH]c2=O)C(=O)Cn2cc(C)c(=O)[nH]c2=O)CC(N)=O)c(=O)[nH]c1=O
- Activity (Mesenchymal stem cells [1]): Non-toxic
- Tm (DNA [2]): > 90 °C
- inhibition (Mesenchymal stem cells [4]): Mild_effect
- inhibition (Mesenchymal stem cells [7]): Dose-dependent-effect
- Activity (Mesenchymal stem cells [8]): Active
- pIC50 (Mesenchymal stem cells [9]): < 6.00
- Activity (Mesenchymal stem cells [5]): inactive

SMILES: NCCCCCNc1nc(N)c2ncn(CC(=O)N(CCNC(=O)CN(CCNC(=O)CN(CCNC(=O)CN(CCNC(=O)CN(CCNC(=O)CN(CCN)C(=O)Cn3cnc4c(N)ncnc43)C(=O)Cn3cnc4c(=O)[nH]c(N)nc43)C(=O)Cn3ccc(N)nc3=O)C(=O)Cn3cnc4c(N)ncnc43)C(=O)Cn3ccc(N)nc3=O)CC(=O)NCCN(CC(=O)NCCN(CC(=O)NCCN(CC(=O)NCCN(CC(N)=O)C(=O)Cn3cnc4c(N)ncnc43)C(=O)Cn3ccc(N)nc3=O)C(=O)Cn3cnc4c(N)ncnc43)C(=O)Cn3cnc4c(=O)[nH]c(N)nc43)c2n1
- Tm (DNA [6]): 69.2 °C

SMILES: NCCCCCCNc1nc2c(ncn2CC(=O)N(CCN)CC(=O)NCCN(CC(=O)NCCN(CC(=O)NCCN(CC(=O)NCCN(CC(=O)NCCN(CC(=O)NCCN(CC(=O)NCCN(CC(=O)NCCN(CC(=O)NCCN(CC(N)=O)C(=O)Cn2cnc3c(=O)[nH]c(N)nc32)C(=O)Cn2cnc3c(N)ncnc32)C(=O)Cn2cnc3c(=O)[nH]c(N)nc32)C(=O)Cn2ccc(N)nc2=O)C(=O)Cn2cnc3c(=O)[nH]c(N)nc32)C(=O)Cn2cnc3c(N)nc(NCCCCCN)nc32)C(=O)Cn2cnc3c(=O)[nH]c(N)nc32)C(=O)Cn2cnc3c(N)ncnc32)C(=O)Cn2ccc(N)nc2=O)c(=O)[nH]1
- Tm (DNA [6]): 76.9 °C

SMILES: NCCOCc1cc2cn(CC(=O)N(CCNC(=O)CN(CCNC(=O)CN(CCNC(=O)CN(CCNC(=O)CN(CCN)C(=O)Cn3ccc(N)nc3=O)C(=O)Cn3cnc4c(N)ncnc43)C(=O)Cn3cnc4c(=O)[nH]c(N)nc43)C(=O)Cn3cnc4c(N)ncnc43)CC(=O)NCCN(CC(=O)NCCN(CC(=O)NCCN(CC(=O)NCCN(CC(=O)NCCN(CC(N)=O)C(=O)Cn3ccc(N)nc3=O)C(=O)Cn3cnc4c(=O)[nH]c(N)nc43)C(=O)Cn3cnc4c(N)ncnc43)C(=O)Cn3cnc4c(=O)[nH]c(N)nc43)C(=O)Cn3cnc4c(N)ncnc43)c(=O)nc2[nH]1
- Tm (DNA [6]): 77.2 °C

SMILES: NCCCCCNc1nc(N)c2ncn(CC(=O)N(CCNC(=O)CN(CCNC(=O)CN(CCNC(=O)CN(CCNC(=O)CN(CCN)C(=O)Cn3cnc4c(=O)[nH]c(N)nc43)C(=O)Cn3ccc(N)nc3=O)C(=O)Cn3cnc4c(N)ncnc43)C(=O)Cn3cnc4c(=O)[nH]c(N)nc43)CC(=O)NCCN(CC(=O)NCCN(CC(=O)NCCN(CC(=O)NCCN(CC(=O)NCCN(CC(N)=O)C(=O)Cn3cnc4c(=O)[nH]c(N)nc43)C(=O)Cn3cnc4c(N)ncnc43)C(=O)Cn3cnc4c(=O)[nH]c(N)nc43)C(=O)Cn3ccc(N)nc3=O)C(=O)Cn3cnc4c(=O)[nH]c(N)nc43)c2n1
- Tm (DNA [6]): 75.9 °C
